pIC50: −log10 of the molar value. Marks after values point to notes of the source that are not given here.
Target: T1, mAChR M1 (UniProt P11229)
T1 sequence (P11229 1-460): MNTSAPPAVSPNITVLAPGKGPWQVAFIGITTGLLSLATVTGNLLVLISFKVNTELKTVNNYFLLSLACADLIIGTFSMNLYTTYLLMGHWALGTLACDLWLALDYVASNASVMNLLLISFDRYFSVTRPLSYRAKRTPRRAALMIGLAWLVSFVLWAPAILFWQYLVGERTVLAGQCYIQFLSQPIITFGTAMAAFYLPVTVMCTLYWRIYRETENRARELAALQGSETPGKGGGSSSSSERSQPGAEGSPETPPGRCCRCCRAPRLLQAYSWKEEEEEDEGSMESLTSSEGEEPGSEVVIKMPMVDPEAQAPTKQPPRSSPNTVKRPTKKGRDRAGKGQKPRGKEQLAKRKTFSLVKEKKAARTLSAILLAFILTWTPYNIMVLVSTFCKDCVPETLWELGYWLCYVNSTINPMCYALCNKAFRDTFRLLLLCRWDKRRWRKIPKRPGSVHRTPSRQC
Assay: mAChR M1 cell-based functional assay (calcium mobilization, antagonist mode)
Settings: for pIC50: concentration of antagonist decreasing calcium flux by 50%, EC80 acetylcholine response, CHO-K1 cells expressing mAChR M1, read-out: Potency (IC50)
Excerpt: Chinese hamster ovary (CHO-K1) cells stably expressing rat (r)M1 were purchased from the American Type Culture Collection and cultured according to their indicated protocol. CHO cells stably expressing human (h)M2, hM3, and hM5 were described previously (Levey, et al., 1991); hM1 and hM4 cDNAs were purchased from Missouri S&T cDNA Resource; rM4 cDNA was provided by T. I. Bonner (National Institutes of Health, Bethesda, Md.). rM2 and rM3 were cloned from a rat brain cDNA library and sequence verified. hM1, rM2, rM3, hM4, and rM4 cDNAs were used to stably transfect CHO-K1 cells purchased from the American Type Culture Collection using Lipofectamine-2000. To make stable rM2, hM2, rM3, hM4, and rM4 cell lines for use in calcium mobilization assays, these cells also were stably transfected with a chimeric G-protein (Gqi5) (provided by B. R. Conklin, University of California, San Francisco) using Lipofectamine 2000. rM1, hM1, rM3, hM3, rM5, and hM5 cells were grown in Ham's F-12 medium containing 10% heat-inactivated fetal bovine serum (FBS), 20 mM HEPES, and 50 μg/mL G418 sulfate. rM2-Gqi5, hM2-Gqi5, and hM4-Gqi5 cells were grown in the same medium also containing 500 μg/mL Hygromycin B. Stable rM4-Gqi5 cells were grown in DMEM containing 10% heat-inactivated FBS, 20 mM HEPES, 400 μg/mL G418 sulfate, and […].
For high throughput measurement of antagonist inhibited increases in intracellular calcium, CHO-K1 cells stably expressing muscarinic receptors were plated in growth medium lacking G418 and hygromycin at 15,000 cells/20 μL/well in Greiner 384-well black-walled, tissue culture (TC)-treated, clear-bottom plates (VWR). Cells were incubated overnight at 37° C. and 5% CO2. The next day, cells were washed using an ELX 405 (BioTek) with four washes (80 μL) of assay buffer then aspirated to 20 μL. Next, 20 μL of 16 μM Fluo-4/acetoxymethyl ester (Invitrogen, Carlsbad, Calif.) prepared as a 2.3 mM stock in DMSO and mixed in a 1:1 ratio with 10% (w/v) Pluronic F-127 and diluted in assay buffer was added to the wells and the cell plates were incubated for 50 min at 37° C. and 5% CO2. Dye was removed by washing with the ELX 405 (four 80 μL washes of assay buffer) then aspirated to 20 μL. Compound master plates were formatted in an 11 point CRC format (1:3 dilutions) in 100% DMSO with a starting concentration of 10 mM using the BRAVO liquid handler (Agilent). Test compound CRCs were then transferred to daughter plates (240 nL) using the Echo acoustic plate reformatter (Labcyte, Sunnyvale, Calif.) and then diluted into assay buffer (40 μL) to a 2× stock using a Thermo Fisher Combi (Thermo Fisher Scientific, Waltham, Mass.).
Calcium flux was measured using the Functional Drug Screening System (FDSS) 6000 (Hamamatsu Corporation, Tokyo, Japan) as an increase in the fluorescent static ratio. Compounds were applied to cells (20 μL, 2×) using the automated system of the FDSS 6000 at 4 s into the 300 s protocol and the data were collected at 1 Hz. At 144 s into the 300 s protocol, 10 μL of an EC20 concentration of the muscarinic receptor agonist acetylcholine was added (5×), followed by the addition of 12 μL an EC80 concentration of acetylcholine at the 230 s time point (5×). Agonist activity was analyzed as a concentration-dependent increase in calcium mobilization upon compound addition. Positive allosteric modulator activity was analyzed as a concentration-dependent increase in the EC20 acetylcholine response. Antagonist activity was analyzed as a concentration-dependent decrease in the EC80 acetylcholine response. Concentration-response curves were generated using a four-parameter logistical equation in XLfit curve fitting software (IDBS, Bridgewater, N.J.) for Excel (Microsoft, Redmond, Wash.) or Prism (GraphPad Software, Inc., San Diego, Calif.).
The calcium mobilization assay was used to determine “potency”.

[1] = activity remaining at top dose of 30 μM test compound, as percentage of the response to an approx. EC80 concentration of ACh
[2] = dash = baseline or about zero remaining activity (table footnote)

Compound	Remaining Activity (%) [1]	pIC50	Remaining Activity (%) [2]
O=C(C1CN(S(=O)(=O)c2cccc(Cl)c2)C1)N1CCN(c2ccncc2)CC1 [B36]	27%		
O=C(C1CN(S(=O)(=O)c2ccc3c(c2)OCO3)C1)N1CCN(c2ccncc2)CC1 [B9]			— (Unless otherwise indicated with a numerical value, the percent remaining activity is baseline or about zero, i.e. as indicated by “—”)
Cc1cc2c(S(=O)(=O)N3CC(C(=O)N4CC5CN(c6ccncc6)CC5C4)C3)cccc2cn1 (stereo not drawn) [B60]			— (Unless otherwise indicated with a numerical value, the percent remaining activity is baseline or about zero, i.e. as indicated by “—”)
Cc1cc(S(=O)(=O)N2CC(C(=O)N3CCN(c4ccncc4)CC3)C2)cnc1Cl [B7]			— (Unless otherwise indicated with a numerical value, the percent remaining activity is baseline or about zero, i.e. as indicated by “—”)
O=C(C1CN(S(=O)(=O)c2cccc3cnccc23)C1)N1CCC(c2cccnc2)C1 (stereo not drawn) [B48]	30%	< 5.00	
O=C(C1CN(S(=O)(=O)c2cccc3nsnc23)C1)N1CC2CN(c3ccncc3)CC2C1 (stereo not drawn) [B53]			— (Unless otherwise indicated with a numerical value, the percent remaining activity is baseline or about zero, i.e. as indicated by “—”)
Cn1ccc2cc(S(=O)(=O)N3CC(C(=O)N4CCN(c5ccncc5)CC4)C3)ccc21 [B50]	59%	< 5.00	
CCC(C)S(=O)(=O)N1CC(C(=O)N2CCN(c3ccncc3)CC2)C1 (stereo not drawn) [B46]	52%	< 5.00	

Further lines, with some results ahead:

Remaining Activity (%) [1]	pIC50	Compound	Remaining Activity (%) [2]
50%	< 5.00	O=C(C1CN(S(=O)(=O)C2CCCCC2)C1)N1CCN(c2ccncc2)CC1 [B47]	
	6.02	O=C(C1CN(S(=O)(=O)c2ccc3c(c2)OCO3)C1)N1CC2CN(c3ccncc3)CC2C1 (stereo not drawn) [B57]	— (Unless otherwise indicated with a numerical value, the percent remaining activity is baseline or about zero, i.e. as indicated by “—”)
48%	< 5.00	O=C(C1CN(S(=O)(=O)c2cnc3ccccc3c2)C1)N1CCN(c2ccncc2)CC1 [B39]	
26%	< 5.00	O=C(C1CN(S(=O)(=O)c2ccc3cn[nH]c3c2)C1)N1CCN(c2ccncc2)CC1 [B37]	
	6.54	O=C(C1CN(S(=O)(=O)c2cccc3nonc23)C1)N1CCN(c2ccncc2)CC1 [B8]	— (Unless otherwise indicated with a numerical value, the percent remaining activity is baseline or about zero, i.e. as indicated by “—”)
≧80% **	< 5.00	O=C(C1CN(S(=O)(=O)c2cccc3nonc23)C1)N1CCC(O)(c2ccncc2)CC1 [B61]	
	6.34	Cc1cc(N2CCN(C(=O)C3CN(S(=O)(=O)c4cccc5cnccc45)C3)CC2)cc(C)n1 [B14]	— (Unless otherwise indicated with a numerical value, the percent remaining activity is baseline or about zero, i.e. as indicated by “—”)
≧80%	< 5.00	O=C(C1CN(S(=O)(=O)c2ccc(OC(F)F)cc2)C1)N1CCN(c2ccncc2)CC1 [B63]	
41%	< 5.00	Cc1ccnc(S(=O)(=O)N2CC(C(=O)N3CCN(c4ccncc4)CC3)C2)c1 [B40]	
	7.32	O=C(C1CN(S(=O)(=O)c2cccc3cnccc23)C1)N1CCN(c2ccnc(Cl)c2)CC1 [B2]	— (Unless otherwise indicated with a numerical value, the percent remaining activity is baseline or about zero, i.e. as indicated by “—”)
37%	< 5.00	O=C(C1CN(S(=O)(=O)c2ccc(C(F)(F)F)nc2)C1)N1CCN(c2ccncc2)CC1 [B41]	
